Tests used:
Type in all cases: in vivo
Nightshade [1] = experiment: Test C preemergence; conditions: Rate 500 g/ha, visual evaluation after 12 to 14 days
rice (Oryza saliva) = experiment: Test C flooded paddy test; conditions: for Rice plant response rating: Flooded Paddy, scale 0 to 100, 0 no effect, 100 complete control; for Plant response rating, Rice: flooded paddy test, scale 0 to 100 (0 no effect, 100 complete control)
Summary of the method: (§1)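 Each species was cultivated to 2 leaves in flooded paddy pots, then treated. After a greenhouse period of 12–14 days, the plants were scored visually relative to controls from 0 (no effect) to 100 (complete control).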

[2] = system: duck salad (Heteranthera limosa); experiment: Test C flooded paddy test; conditions: for Ducksalad plant response rating: Flooded Paddy, scale 0 to 100, 0 no effect, 100 complete control; for Plant response rating, Ducksalad: flooded paddy test, scale 0 to 100 (0 no effect, 100 complete control)
Summary of the method: as §1

[3] = system: smallflower flatsedge (Cyperus difformis); experiment: Test C flooded paddy test; conditions: for Flatsedge plant response rating: Flooded Paddy, scale 0 to 100, 0 no effect, 100 complete control; for Plant response rating, Flatsedge: flooded paddy test, scale 0 to 100 (0 no effect, 100 complete control)
Summary of the method: as §1

[4] = system: barnyardgrass (Echinochloa crus-galli); experiment: Test C flooded paddy test; conditions: for Barnyardgrass plant response rating: Flooded Paddy, scale 0 to 100, 0 no effect, 100 complete control; for Plant response rating, Barnyardgrass: flooded paddy test, scale 0 to 100 (0 no effect, 100 complete control)
Summary of the method: as §1

Sunflower = experiment: Test C preemergence; conditions: Rate 250 g/ha, scale 0 to 100, 0 no effect, 100 complete control
[5] = system: johnsongrass (Sorghum halepense); experiment: Test C preemergence
Summary of the method: (§2)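 Pre- and postemergence treatments used a non-phytotoxic solvent/surfactant formulation; post-treated plants measured 2 to 18 cm. Greenhouse hold 12–14 d; % control estimated visually relative to controls.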

Nightshade [6] = experiment: Test C preemergence
[7] = system: lambsquarters (Chenopodium album); experiment: Test C preemergence
Summary of the method: as §2

kochia (Kochia scoparia) = experiment: Test C preemergence
Summary of the method: as §2

[8] = system: yellow nutsedge (Cyperus esculentus); experiment: Test C preemergence
Summary of the method: as §2

corn (Zea mays) [9] = experiment: Test C preemergence
Summary of the method: as §2

[10] = system: woolly cupgrass (Eriochloa villosa); experiment: Test C preemergence
Summary of the method: as §2

soybean (Glycine max) = experiment: Test C preemergence
Summary of the method: as §2

[11] = system: pigweed (Amaranthus retroflexus); experiment: Test C preemergence
Summary of the method: as §2

corn (Zea mays) [12] = experiment: Test B postemergence; conditions: 13 to 15 days
Summary of the method: (§3)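 Seeds were planted and sprayed preemergence with test chemical in a non-phytotoxic solvent mixture containing surfactant; postemergence plants (2 to 18 cm, 1- to 4-leaf stage) received the same formulation. Greenhouse hold 13 to 15 days, then visual rating versus untreated controls on a 0–100 scale (0 no effect, 100 complete control).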

wild oat (Avena fatua) = experiment: Test B postemergence; conditions: 13 to 15 days
Summary of the method: as §3

[13] = system: wheat (Triticum aestivum); experiment: Test B postemergence; conditions: 13 to 15 days
Summary of the method: as §3

[14] = system: barnyardgrass (Echinochloa crus-galli); experiment: Test B postemergence; conditions: 13 to 15 days
Summary of the method: as §3

[15] = Rate 125 g/ha, scale 0 to 100, 0 no effect, 100 complete control
[16] = preemergence, Rate 62 g/ha, scale 0 to 100
[17] = preemergence, Rate 500 g/ha, visual evaluation after 12 to 14 days
[18] = preemergence, Rate 250 g/ha, scale 0 to 100, 0 no effect, 100 complete control
[19] = Rate 125 g/ha, scale 0 (no effect) to 100 (complete control)
[20] = Rate 500 g/ha, scale 0 to 100, 0 is no effect, 100 is complete control

CC(C)(C)c1ccn(C2CCN(c3cccc(I)c3)C2=O)n1 (stereo not shown) [Compound 88]
Plant response rating (0 to 100), Nightshade (Nightshade [1]): 80 | Rice plant response rating (rice (Oryza saliva); Rate 250 g/ha): 30 | Rice plant response rating (rice (Oryza saliva); Rate 500 g/ha): 70 | Plant response rating, Rice (rice (Oryza saliva); Rate 62 g/ha): 0 | Plant response rating, Rice (rice (Oryza saliva); Rate 125 g/ha): 20 | Ducksalad plant response rating ([2]; Rate 250 g/ha): 60 | Ducksalad plant response rating ([2]; Rate 500 g/ha): 60 | Plant response rating, Ducksalad ([2]; Rate 62 g/ha): 0 | Plant response rating, Ducksalad ([2]; Rate 125 g/ha): 10 | Flatsedge plant response rating ([3]; Rate 250 g/ha): 100 | Flatsedge plant response rating ([3]; Rate 500 g/ha): 100 | Plant response rating, Flatsedge ([3]; Rate 62 g/ha): 90 | Plant response rating, Flatsedge ([3]; Rate 125 g/ha): 90 | Barnyardgrass plant response rating ([4]; Rate 250 g/ha): 100 | Barnyardgrass plant response rating ([4]; Rate 500 g/ha): 100 | Plant response rating, Barnyardgrass ([4]; Rate 62 g/ha): 30 | Plant response rating, Barnyardgrass ([4]; Rate 125 g/ha): 100 | Plant response rating, Sunflower (Sunflower): 20 | Plant response rating, Johnsongrass [5, 15]: 10 | Plant response rating, Johnsongrass [5, 16]: 10 | Plant response rating (0 to 100), Johnsongrass [5, 17]: 100 | Plant response rating, Johnsongrass [5, 18]: 40 | Plant response rating, Nightshade (Nightshade [6]; Rate 62 g/ha, scale 0 to 100): 30 | Plant response rating, Nightshade (Nightshade [6]; [15]): 20 | Plant response rating, Nightshade (Nightshade [6]; Rate 250 g/ha, scale 0 to 100, 0 no effect, 100 complete control): 80 | Plant response rating, Lambsquarters [7, 15]: 100 | Plant response rating, Lambsquarters [7, 16]: 100 | Plant response rating (0 to 100), Lambsquarters [7, 17]: 100 | Plant response rating, Lambsquarters [7, 18]: 100 | Plant response rating, Kochia (kochia (Kochia scoparia); [15]): 90 | Plant response rating, Kochia (kochia (Kochia scoparia); [16]): 70 | Plant response rating (0 to 100), Kochia (kochia (Kochia scoparia); [17]): 100 | Plant response rating, Kochia (kochia (Kochia scoparia); [18]): 100 | Plant response rating, Nutsedge [8, 15]: 0 | Plant response rating, Nutsedge [8, 16]: 0 | Plant response rating (0 to 100), Nutsedge [8, 17]: 10 | Plant response rating, Nutsedge [8, 18]: 0 | Plant response rating, Corn (corn (Zea mays) [9]; [15]): 10 | Plant response rating, Corn (corn (Zea mays) [9]; [16]): 0 | Plant response rating (0 to 100), Corn (corn (Zea mays) [9]; [17]): 100 | Plant response rating, Corn (corn (Zea mays) [9]; [18]): 70 | Plant response rating, Cupgrass, Woolly [10, 15]: 90 | Plant response rating, Cupgrass, Woolly [10, 16]: 60 | Plant response rating (0 to 100), Cupgrass, Woolly [10, 17]: 100 | Plant response rating, Cupgrass, Woolly [10, 18]: 100 | Plant response rating, Soybean (soybean (Glycine max); [15]): 10 | Plant response rating, Soybean (soybean (Glycine max); [16]): 0 | Plant response rating (0 to 100), Soybean (soybean (Glycine max); [17]): 30 | Plant response rating, Soybean (soybean (Glycine max); [18]): 10 | Plant response rating, Pigweed [11, 15]: 10 | Plant response rating, Pigweed [11, 16]: 0 | Plant response rating (0 to 100), Pigweed [11, 17]: 100 | Plant response rating, Pigweed [11, 18]: 40 | Plant response rating, Corn (corn (Zea mays) [12]; [19]): 0 | Plant response rating, Corn (corn (Zea mays) [12]; [20]): 10 | Plant response rating, Wild Oat (wild oat (Avena fatua); [19]): 0 | Plant response rating, Wild Oat (wild oat (Avena fatua); [20]): 0 | Plant response rating, Wheat [13, 19]: 0 | Plant response rating, Wheat [13, 20]: 30 | Plant response rating, Barnyardgrass [14, 19]: 0 | Plant response rating, Barnyardgrass [14, 20]: 90

Source: US7138361B2, “Herbicidal heterocycles” (E. I. du Pont de Nemours and Company, priority 2000, dated 2006)
